# Measured values from the SangsterLogP compilation.
# Assay: method code SF-HPLC, from DOI: 10.1002/ps.2780400103
row,SMILES,logP
1,CC(C)(C)C(COc1ccc(Cl)cc1)OC(=S)n1ccnc1 (configuration not stated),4.96
2,CC(C)Oc1ccc(OCC(OC(=O)n2ccnc2)C(C)(C)C)cc1 (configuration not stated),4.08
3,CCc1ccc(OCC(OC(=S)n2ccnc2)C(C)(C)C)cc1 (configuration not stated),5.09
4,COC(=O)c1ccc(OCC(OC(=O)n2ccnc2)C(C)(C)C)cc1 (configuration not stated),3.59
5,CC(C)(C)C(COc1ccc(S(C)(=O)=O)cc1)OC(=O)n1ccnc1 (configuration not stated),2.59
6,Cc1ccc(OCC(OC(=S)n2ccnc2)C(C)(C)C)cc1 (configuration not stated),4.66
7,CCCc1ccc(OCC(OC(=O)n2ccnc2)C(C)(C)C)cc1 (configuration not stated),4.73
8,CC(C)c1ccc(OCC(OC(=S)n2ccnc2)C(C)(C)C)cc1 (configuration not stated),5.21
9,COC(=O)c1ccc(OCC(OC(=S)n2ccnc2)C(C)(C)C)cc1 (configuration not stated),4.77
10,COc1ccc(OCC(OC(=S)n2ccnc2)C(C)(C)C)cc1 (configuration not stated),4.31
11,CC(C)(C)C(COc1ccc(Br)cc1)OC(=S)n1ccnc1 (configuration not stated),5.11
12,CCCc1ccc(OCC(OC(=S)n2ccnc2)C(C)(C)C)cc1 (configuration not stated),5.77
13,CCCCOc1ccc(OCC(OC(=O)n2ccnc2)C(C)(C)C)cc1 (configuration not stated),4.29
14,CC(C)(C)C(COc1ccccc1)OC(=S)n1ccnc1 (configuration not stated),4.27
15,CC(C)(C)C(COc1ccc(-c2ccccc2)cc1)OC(=O)n1ccnc1 (configuration not stated),4.56
16,CCOC(=O)c1ccc(OCC(OC(=O)n2ccnc2)C(C)(C)C)cc1 (configuration not stated),4.12
17,CCCCc1ccc(OCC(OC(=O)n2ccnc2)C(C)(C)C)cc1 (configuration not stated),4.97
18,CC(C)(C)C(COc1ccccc1)OC(=O)n1ccnc1 (configuration not stated),3.58
19,CCCOc1ccc(OCC(OC(=S)n2ccnc2)C(C)(C)C)cc1 (configuration not stated),5.03
20,CC(C)(C)C(COc1ccc(F)cc1)OC(=S)n1ccnc1 (configuration not stated),4.37
21,CCCOc1ccc(OCC(OC(=O)n2ccnc2)C(C)(C)C)cc1 (configuration not stated),4.1
22,CCCCCc1ccc(OCC(OC(=O)n2ccnc2)C(C)(C)C)cc1 (configuration not stated),5.26
23,CC(C)(C)C(COc1ccc(-c2ccccc2)cc1)OC(=S)n1ccnc1 (configuration not stated),6.06
24,CCOc1ccc(OCC(OC(=S)n2ccnc2)C(C)(C)C)cc1 (configuration not stated),4.58

# Continued, values first:
row,logP,SMILES
1,4.3,CC(C)(C)C(COc1ccc(I)cc1)OC(=O)n1ccnc1 (configuration not stated)
2,4.37,CC(C)(C)C(COc1ccc(Br)cc1)OC(=O)n1ccnc1 (configuration not stated)
3,4.1,CCc1ccc(OCC(OC(=O)n2ccnc2)C(C)(C)C)cc1 (configuration not stated)
4,4.15,CC(C)(C)C(COc1ccc(C(F)(F)F)cc1)OC(=O)n1ccnc1 (configuration not stated)
5,4.82,CC(C)(C)c1ccc(OCC(OC(=O)n2ccnc2)C(C)(C)C)cc1 (configuration not stated)
6,4.77,CC(C)c1ccc(OCC(OC(=O)n2ccnc2)C(C)(C)C)cc1 (configuration not stated)
7,3.68,CC(C)(C)C(COc1ccc(F)cc1)OC(=O)n1ccnc1 (configuration not stated)
8,4.19,CC(C)(C)C(COc1ccc(Cl)cc1)OC(=O)n1ccnc1 (configuration not stated)
9,3.35,CC(C)(C)C(COc1ccc([N+](=O)[O-])cc1)OC(=O)n1ccnc1 (configuration not stated)
10,3.46,COc1ccc(OCC(OC(=O)n2ccnc2)C(C)(C)C)cc1 (configuration not stated)
11,3.86,CCOc1ccc(OCC(OC(=O)n2ccnc2)C(C)(C)C)cc1 (configuration not stated)
12,4.03,CSc1ccc(OCC(OC(=O)n2ccnc2)C(C)(C)C)cc1 (configuration not stated)
13,3.15,CC(C)(C)C(COc1ccc(C#N)cc1)OC(=O)n1ccnc1 (configuration not stated)
